The text below walks through data of ChEMBL document CHEMBL1781914, “Syntheses and initial evaluation of a series of indolo-fused heterocyclic inhibitors of the polymerase enzyme (NS5B) of the hepatitis C virus” (Bioorg Med Chem Lett, 2011).

Series [1] is described as follows: Oral bioavailability in rat. The class given is ADME, organism-based. To be noted: in vivo.
Series [2] is described as follows: AUC in iv and po dosed rat. The settings on record: plasma. The class given is ADME, organism-based.
The nature of series [3]: Drug clearance in rat at 2 mg/kg, iv. The class given is ADME, organism-based. The arrangement: dose 2 mg/kg, route intravenous. To be noted: in vivo.
In series [4] the test system is Hepatitis C virus. Briefly: Inhibition of HCV genotype 1b NS5B polymerase expressed in Escherichia coli BL21(DE3) after 60 mins by FRET assay. More on the design: species or system Hepatitis C virus subtype 1b. To be noted: BL21-DE3, 1 h.
In series [5] the test system is Hepatitis C virus. Briefly: Antiviral activity against HCV infected in human Huh7 cells assessed as inhibition of viral replication by luciferase assay. The class given is functional, organism-based, Hepacivirus hominis. To be noted: Huh-7.

For the compound `O=C(O)/C=C/c1ccc(OC(=O)C2(NC(=O)c3ccc4c(C5CCCCC5)c5n(c4c3)CCCc3ccccc3-5)CCCC2)cc1`, in series [1], the bioavailability (usually dose-corrected exposure relative to a reference, in per cent) stood at 8%. Besides, the AUC (in general, the area under the concentration-time curve, a measure of exposure) in series [2] came to 0.28 µM·h. In series [3], the clearance – broadly, a measure of how efficiently the substance is removed, as volume per time – is 250 mL/min/kg. For the same compound, in the series with Hepatitis C virus [4], it took 30 nM to reach half-maximal inhibition (IC50). In addition, in the series on Hepatitis C virus [5], the EC50 (usually the concentration that produces a half-maximal response) is 20 nM.

For the compound `O=C(O)/C=C/c1ccc(OC(=O)C2(NC(=O)c3ccc4c(C5CCCCC5)c5n(c4c3)CCOc3ccccc3-5)CCCC2)cc1`, the bioavailability in series [1] was 5%. In addition, the AUC in series [2] stood at 0.79 µM·h. In series [3], this compound yielded a clearance of 17 mL/min/kg. The concentration for half-maximal inhibition (IC50) (usually the concentration at which inhibition is half-maximal) in the series on Hepatitis C virus [4] is 30 nM. The EC50 in the series with Hepatitis C virus [5] was 10 nM.

In series [1], `O=C1Cn2c(c(C3CCCCC3)c3ccc(C(=O)O)cc32)-c2ccccc2N1` registered a bioavailability of 17.6%. Moreover, the IC50 with Hepatitis C virus [4] amounted to 70 nM. For the same compound, in the series on Hepatitis C virus [5], the EC50 was found to be 240 nM.

For the compound `O=C(O)/C=C/c1ccc(OC(=O)C2(NC(=O)c3ccc4c(C5CCCCC5)c5n(c4c3)CC(=O)Nc3ccccc3-5)CCCC2)cc1`, in series [1], the bioavailability is 3%. In series [2], this compound came in with an exposure (AUC) of 0.66 µM·h. For the same compound, in series [3], the clearance came out at 13 mL/min/kg. In the series with Hepatitis C virus [4], this compound registered an IC50 of 20 nM. Moreover, the EC50 in the series on Hepatitis C virus [5] stood at 10 nM.

Turning to `O=C(O)c1ccc2c(C3CCCCC3)c3n(c2c1)CCCCNc1ccccc1-3`, the IC50 in the series on Hepatitis C virus [4] is 600 nM. Also, in the series with Hepatitis C virus [5], the EC50 turned out to be 270 nM.

`O=C(O)/C=C/c1ccc(OC(=O)C2(NC(=O)c3ccc4c(C5CCCCC5)c5n(c4c3)CCCCNc3ccccc3-5)CCCC2)cc1` yielded a bioavailability in series [1] of 12.3%. For the same compound, the AUC in series [2] amounted to 3.61 µM·h. Further, in series [3], the clearance is 8.7 mL/min/kg. Moreover, the IC50 with Hepatitis C virus [4] was 90 nM. In the series on Hepatitis C virus [5], the EC50 is 20 nM.

Compound `O=C(O)c1ccc2c(C3CCCCC3)c3n(c2c1)CCCc1ccccc1-3` came in with an IC50 in the series with Hepatitis C virus [4] of 840 nM. Moreover, in the series with Hepatitis C virus [5], the EC50 was found to be 700 nM.

In the series with Hepatitis C virus [4], `O=C(O)c1ccc2c(C3CCCCC3)c3n(c2c1)CCOc1ccccc1-3` gave an IC50 of 690 nM. Moreover, the EC50 in the series on Hepatitis C virus [5] was found to be 590 nM.
